Experimental findings from US20250213587A1, “ITK INHIBITORS FOR INCREASING TH1 CELL ACTIVITY” (Corvus Pharmaceuticals, Inc., priority 2022, published 2025) are described below.

The nature of series [1]: Glutathione reactivity assay. The series is classed as physicochemical. The note with it: 37° C. On the procedure: The reactivity of acrylamides with glutathione was determined by measuring the disappearance of starting material and appearance of the adduct with glutathione in HPLC-MS spectra as a function of time. All the stock solutions and solvents were bubbled with nitrogen and all reactions were run under nitrogen at 37° C. A 250 μL volume of 20 mM test compound in DMSO was mixed with 250 μL of 2.0 mM indoprofen (used as internal standard) in DMSO and 4.5 mL of 11.1 mM glutathione in 100 mM potassium phosphate buffer (pH 7.4). Each reaction contained 1 mM test compound, 0.1 mM indoprofen, and 10 mM glutathione in 100 mM potassium phosphate buffer and 10% DMSO. The reaction mixture was stirred at 37° C. for 5 hours and sampled for HPLC-MS analysis every hour. The reaction product, internal standard and starting materials were separated by liquid chromatography using an Agilent Eclipse XBD-C18 column (4.6×150 mm, 3.5 um) and quantified by UV absorption. The mobile phase consisted of solvent A (water) and solvent B (acetonitrile), employing a gradient of 10% to 95% solvent B over 10 min.

In series [2] the test system is IL-2 secretion by Jurkat T cells. Nature of the series: Inhibition of IL-2 production in Jurkat cells. The note with it: Homo sapiens, washout, anti-CD3 18 hours, 15 determinations. It counts as cell-based. The protocol:
Jurkat cells (0.25×10^6) in Dulbecco's Modified Eagle's medium (Gibco) supplemented with 5% FBS were seeded in each well of a 96 well MultiScreenR HV filter plate (EMD Millipore) placed on top of a 96 well collection plate. CPI 818 was serially diluted in DMSO and added to the culture. After a 2-hour incubation at 37° C. the plates were centrifuged (188×g for 15 seconds) to remove the inhibitor-containing medium from the filter plate. Cells were washed twice by resuspending with 200 μL of medium per well and centrifuged. Cells in each well were then resuspended with 1.25×10^6 (50 μL) of Dynabeads CD3 (Life Technologies) and incubated for 18 hours at 37° C. Conditioned media was collected by centrifugation (188×g for 1 min). Human IL-2 concentration was measured with the AlphaLISA human IL2 Kit (PerkinElmer) and data collected on an Envision Plate Reader (PerkinElmer). Data were analyzed and graphed using GraphPad Prism version b7.0b. Technical duplicates of the concentration response were collected at each determination.

Series [3] can be described thus: Mouse pharmacokinetics after oral dosing. It counts as in vivo.
For series [4], the target named is T1, ITK (Canis lupus familiaris, UniProt A0A8I3MMK2).
T1 construct: from tissue; host or cells: PBMC of dosed dogs
T1 sequence (A0A8I3MMK2 1-620): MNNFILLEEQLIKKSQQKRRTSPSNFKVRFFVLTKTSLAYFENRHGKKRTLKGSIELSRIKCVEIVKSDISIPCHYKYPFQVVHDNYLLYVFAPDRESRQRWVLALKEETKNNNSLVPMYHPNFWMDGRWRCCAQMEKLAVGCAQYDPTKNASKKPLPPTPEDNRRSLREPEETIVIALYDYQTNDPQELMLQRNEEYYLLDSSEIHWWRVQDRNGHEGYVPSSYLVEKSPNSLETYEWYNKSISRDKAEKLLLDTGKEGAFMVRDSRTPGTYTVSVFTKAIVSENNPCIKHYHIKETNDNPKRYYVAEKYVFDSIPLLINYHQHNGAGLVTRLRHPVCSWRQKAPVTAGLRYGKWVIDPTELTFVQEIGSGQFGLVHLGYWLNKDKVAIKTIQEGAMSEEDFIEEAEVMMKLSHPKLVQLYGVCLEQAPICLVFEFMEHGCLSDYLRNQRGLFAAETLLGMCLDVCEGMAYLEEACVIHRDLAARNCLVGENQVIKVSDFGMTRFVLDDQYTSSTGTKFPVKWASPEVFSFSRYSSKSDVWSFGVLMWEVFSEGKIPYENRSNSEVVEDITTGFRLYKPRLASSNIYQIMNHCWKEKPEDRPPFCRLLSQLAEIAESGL
Nature of the series: ITK occupancy in dog PBMC. It counts as in vivo. The note with it: po, single 5 mg/kg PO. The protocol: The active site occupancy of ITK by a covalent inhibitor was measured using an irreversibly bound biotinylated probe in an immuno-electrochemiluminescence assay. The binding of an inhibitor and the probe to the ATP binding site is mutually exclusive. In lysates of immune cell lines or immune cells collected from treated animals, the biotinylated probe reacts with free (uninhibited) ITK and is subsequently captured on a streptavidin-coated surface and quantified. The free ITK in each sample is normalized by dividing it by either the lysate protein concentration (BCA protein assay, Pierce) or cell count of the sample. Normalized free ITK values are generated for samples collected prior to and after treatment from which occupancy was calculated using equation 7. Single cell suspensions of Jurkat cells, mouse splenocytes, dog PBMC or purified normal human T cells were prepared. Cell lysis was performed using a buffer containing CelLytic M (Sigma Aldrich) supplemented with protease and phosphatase inhibitors (Pierce). The cell pellet resuspended in lysis buffer was incubated at room temperature for 30 minutes when the lysate was clarified by centrifugation at 20,000×g for 5 minutes at 4° C. […] Read buffer (Mesoscale Diagnostics) diluted two-fold with water was dispensed into the wells of the plate which was read immediately using an MESO Quickplex SQ 120 instrument.

The subject of series [5] is CD4+ T cells, Sézary cells. Kind of series: Cytokine production by CD4+ cells and Sézary cells stimulated with anti-CD3/28/2. The series is classed as cell-based, human. An excerpt:
This is significant because cytokines secreted by Th2 cells are involved in inflammation, allergy and autoimmunity. […] There was no effect on Th1-dependent IFNg, except at high concentrations. Inhibition of Th2 cells blocks production of various inflammatory cytokines, including IL-4, IL-5, IL-9, IL-13, and IL17a.

For series [6], the target named is T2, ITK (Homo sapiens, UniProt Q08881).
T2 sequence (Q08881 1-620): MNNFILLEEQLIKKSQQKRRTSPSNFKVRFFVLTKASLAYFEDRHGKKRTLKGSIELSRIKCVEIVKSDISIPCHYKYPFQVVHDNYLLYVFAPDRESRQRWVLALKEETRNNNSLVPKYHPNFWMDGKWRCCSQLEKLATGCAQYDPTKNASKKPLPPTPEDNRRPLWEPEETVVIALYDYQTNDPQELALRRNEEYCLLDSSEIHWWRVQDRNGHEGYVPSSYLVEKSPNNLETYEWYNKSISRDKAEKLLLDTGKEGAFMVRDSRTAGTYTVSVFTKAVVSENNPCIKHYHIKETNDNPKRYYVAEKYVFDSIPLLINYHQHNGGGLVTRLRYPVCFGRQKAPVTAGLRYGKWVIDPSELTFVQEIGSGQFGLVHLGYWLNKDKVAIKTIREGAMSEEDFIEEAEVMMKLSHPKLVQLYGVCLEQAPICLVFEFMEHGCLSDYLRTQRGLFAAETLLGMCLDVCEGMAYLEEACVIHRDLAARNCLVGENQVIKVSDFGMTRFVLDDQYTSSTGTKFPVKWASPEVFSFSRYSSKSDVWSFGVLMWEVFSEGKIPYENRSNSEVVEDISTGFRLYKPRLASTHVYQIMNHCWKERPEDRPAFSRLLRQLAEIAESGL
Nature of the series: Human kinome profiling at 1.0 μM, ITK. It counts as biochemical. The arrangement: purchased Invitrogen.

In the case of `C=CC(=O)N1CCCN(C(=O)c2cc(Sc3cnc(NC(=O)C4CC4)s3)c(C)cc2OC)C[C@H]1C` [CPI-818], in series [1] (3 h), the “stability of acrylamide in presence of glutathione” value is given as “minimal loss”. The “loss in presence of glutathione” value in series [1] (physiological glutathione, 5 h) is listed as 4%. Also, the IC50 (commonly the concentration at which inhibition is half-maximal) in series [2] was determined as 136 nM. Besides, the Tmax (as a rule, the time from dosing to the highest level) in series [3] (male, C57Bl/6, mouse, plasma, single 50 mg/kg PO) was 0.5 h. The half-life (in general, the time in which the quantity being followed falls by half) in series [3] (male, C57Bl/6, mouse, plasma, single 50 mg/kg PO, read-out: half-life in circulation (converted)) is 2.4 h. Besides, the oral bioavailability result in series [3] (mouse, in vivo, po) was “orally bioavailable”. In series [3] (single 50 mg/kg PO, over first 8 h), the “decrease of plasma concentration” value is given as 10 fold. For the same compound, the figures for the receptor occupancy at 5 mg/kg at ITK [4] (2 h) and on ITK [4] (24 h) were 91% and 31%, respectively. Besides, the “Interferon gamma (IFNg) production” value in series [5] is “only inhibited at high concentrations”. In series [5] (CD4+ T cells), the Th2 cytokine production result is listed as “dose-dependent inhibition of Th2 cytokine”. In addition, the inhibition – broadly, the percentage by which the read-out fell short of the control – at 1 µM on ITK [6] is over 95%.
